Data taken from patent publication US9382258B2, “Agents for treating pain and uses thereof” (AbbVie Inc., priority 2012, dated 2016).

What was measured:
[1] = tested on: Sprague Dawley rats (CCI neuropathic pain); assay: Chronic constriction injury (CCI) model of neuropathic pain, tactile allodynia by von Frey filaments; type: in vivo, rat; settings: male Sprague Dawley rats, 10 mg/kg orally in 10% dimethyl sulfoxide/polyethylene glycol, mechanical allodynia 60 minutes after administration, calculated from log g paw withdrawal threshold
Description: Test compounds can be evaluated for analgesic effect in an in vivo model of neuropathic pain. Specifically, animals were prepared for testing, by use of a surgical procedure that induces neuropathic pain in one paw. IACUC guidelines for rodent survival surgery were followed. All surgical procedures were conducted on a clean, uncluttered surgical station. The area was wiped with a 70% ethanol solution before and after use. All instruments were sterilized by either autoclave or chemical sterilant (such as 2% glutaraldehyde>10 hours). Surgeons wore sterile gloves (for the initial procedure), clean lab coat or scrubs, hairnet or cap, and a half-mask respirator (when not working under a hood). Surgeons thoroughly washed their hands prior to donning sterile gloves. Gloves were disinfected in-between animals by cleansing with povidone iodine, chlorhexidine or 70% alcohol for at least 30 seconds. If multiple surgeries were performed, the instruments were cleaned and sterilized between procedures with hot glass beads (>10 seconds). To prevent thermal or chemical burns, the instruments were cooled by rinsing in sterile saline before use.
Male, Sprague Dawley® rats, 175-200 g were used for surgeries. To minimize post-operative dehydration/maintain blood volume during the surgery, warmed sterile saline or Lactate Ringers solution at 10-15 mL/kg was administered subcutaneously immediately before or after surgery. This facilitates better renal function and presumably anesthesia product excretion post surgery. For all surgical procedures, anesthesia was induced with 4-5% isoflurane. Anesthesia was maintained during surgery with 1-3% isoflurane. Following induction, the surgical site was carefully shaved and the exposed area was aseptically prepared with povidone-iodine scrub solution and 70% ethanol 2-3 times.
Chronic constriction injury (CCI), a model of neuropathic pain, was produced by following the method of Bennett and Xie (Bennett, G., et al. Pain, 1988, 33, 87-107). After site sterilization and anesthetic procedures outline above were completed, a 1.5 cm incision is made at the mid-thigh level to expose the biceps femoris and gluteous superficialis (right side), which were then separated by blunt dissection. The common sciatic nerve was exposed, isolated, and loosely ligated by four 5-0 chromic gut ligatures with <1 mm spacing between each. The surgical site was closed in layers—muscle is closed with 6.0 absorbable sutures, and the skin closed with wound clips. Animals were allowed to recover on a warming plate and were returned to their home cages when fully ambulatory. Animals were not be used for testing until at least 10 days following surgery.
To measure mechanical sensitivity, tactile allodynia was measured using calibrated von Frey filaments (Stoelting, Wood Dale, Ill.) as described by Chaplan et al. (Chaplan S., et al. J of Neuroscience Methods 1994, 53, 55-63). Filament strengths used were: 0.4, 0.6, 1.0, 2, 4, 6, 8, and 15 g. Rats were placed into inverted individual plastic containers (20×12.5×20 cm) on top of a suspended wire mesh grid, and acclimated to the test chambers for at least 20 minutes. Filaments were applied perpendicular to the mid-plantar paw surface with enough force to cause slight buckling and held in place for 6-8 seconds. Positive responses included an abrupt withdrawal of the paw from the stimulus or flinching behavior immediately following removal of the stimulus. The maximum force applied was 15 g. The 50% paw withdrawal threshold (PWT) was calculated in grams (g) using the up-down method of Dixon (Dixon W. Ann Rev Pharmacol Toxicol 1980, 20, 441-462). […] All compounds were orally administered at 10 mg/kg in 10% dimethyl sulfoxide/polyethylene glycol at a volume of 2.0 mL/kg, and mechanical allodynia was determined 60 minutes following compound administration
The data are reported as log g values and the percentage of maximum possible effect (% MPE) is calculated using log g values with the Formula: […]

human Cav2.2 = biological target: T1, human Cav2.2 (Homo sapiens, UniProt Q00975); assay: Calcium flux (FLIPR, Calcium 4 dye) in IMR32 cells endogenously expressing human Cav2.2; type: cell-based; settings: 60 minute pre-incubation, 2 μM nifedipine to block L-type channels, depolarized with 80 mM KCl, 5 mM CaCl2, average of n≥2 runs unless marked *
T1 construct: cells endogenously expressing human Cav2.2; endogenous in cells; host or cells: IMR32 cells
Description: Compounds were tested for effect on calcium flux in cells endogenously expressing human Cav2.2. Specifically, IMR32 cells endogenously expressing human Cav2.2 were assayed for Ca^2+ influx using a no-wash calcium indicator dye (Calcium 4 dye: Molecular Probes) and FLIPR technology (Lubin, M L; et al. Assay and Drug Development Technologies, 2006, 4(6), 689-694). The IMR32 cells were maintained in MEM media containing 10% (v/v) FBS, 1% (v/v) antibiotic/antimitotic, 1% (v/v) sodium pyruvate and 1% (v/v) MEM NEAA. Following dissociation in 0.05% (v/v) trypsin/EDTA, cells were seeded into black 1×96-well plates (Corning Cellbind) at a density of 1−1.2×10^5 cells/well and incubated in the maintenance media above for 48 hours at 37° C. Immediately prior to performing the assay the media was removed and cells were loaded for 1.5 hours with 1× Calcium 4 dye prepared in HBSS (137 mM NaCl, 5.4 mM KCl, 0.25 mM Na2HPO4, 0.44 mM KH2PO4, 1.3 mM CaCl2, 1 mM MgSO4, 4.2 mM NaHCO3) containing HEPES pH 7.4 at room temperature. After dye loading and a subsequent 60 minute pre-incubation with compounds (full log dilutions from 10 μM to 0.1 nM) in the presence of 1.3 mM CaCl2 and 2 μM nifedipine to block endogenous L-type channels, the external Ca^2+ concentration was increased to 5 mM CaCl2 and the cells concomitantly depolarized with 80 mM KCl to assay channel activity.
To determine the IC50 values, the percent inhibition of the compound at each concentration was determined relative to the activity in the absence of inhibitor, and data was fitted using non-linear regression sigmoidal dose response curve analysis with GraphPad Prism®. Unless otherwise indicated (*), the reported values are average values from at least two runs (i.e., n≧2).

T1 sequence (Q00975 whole entry): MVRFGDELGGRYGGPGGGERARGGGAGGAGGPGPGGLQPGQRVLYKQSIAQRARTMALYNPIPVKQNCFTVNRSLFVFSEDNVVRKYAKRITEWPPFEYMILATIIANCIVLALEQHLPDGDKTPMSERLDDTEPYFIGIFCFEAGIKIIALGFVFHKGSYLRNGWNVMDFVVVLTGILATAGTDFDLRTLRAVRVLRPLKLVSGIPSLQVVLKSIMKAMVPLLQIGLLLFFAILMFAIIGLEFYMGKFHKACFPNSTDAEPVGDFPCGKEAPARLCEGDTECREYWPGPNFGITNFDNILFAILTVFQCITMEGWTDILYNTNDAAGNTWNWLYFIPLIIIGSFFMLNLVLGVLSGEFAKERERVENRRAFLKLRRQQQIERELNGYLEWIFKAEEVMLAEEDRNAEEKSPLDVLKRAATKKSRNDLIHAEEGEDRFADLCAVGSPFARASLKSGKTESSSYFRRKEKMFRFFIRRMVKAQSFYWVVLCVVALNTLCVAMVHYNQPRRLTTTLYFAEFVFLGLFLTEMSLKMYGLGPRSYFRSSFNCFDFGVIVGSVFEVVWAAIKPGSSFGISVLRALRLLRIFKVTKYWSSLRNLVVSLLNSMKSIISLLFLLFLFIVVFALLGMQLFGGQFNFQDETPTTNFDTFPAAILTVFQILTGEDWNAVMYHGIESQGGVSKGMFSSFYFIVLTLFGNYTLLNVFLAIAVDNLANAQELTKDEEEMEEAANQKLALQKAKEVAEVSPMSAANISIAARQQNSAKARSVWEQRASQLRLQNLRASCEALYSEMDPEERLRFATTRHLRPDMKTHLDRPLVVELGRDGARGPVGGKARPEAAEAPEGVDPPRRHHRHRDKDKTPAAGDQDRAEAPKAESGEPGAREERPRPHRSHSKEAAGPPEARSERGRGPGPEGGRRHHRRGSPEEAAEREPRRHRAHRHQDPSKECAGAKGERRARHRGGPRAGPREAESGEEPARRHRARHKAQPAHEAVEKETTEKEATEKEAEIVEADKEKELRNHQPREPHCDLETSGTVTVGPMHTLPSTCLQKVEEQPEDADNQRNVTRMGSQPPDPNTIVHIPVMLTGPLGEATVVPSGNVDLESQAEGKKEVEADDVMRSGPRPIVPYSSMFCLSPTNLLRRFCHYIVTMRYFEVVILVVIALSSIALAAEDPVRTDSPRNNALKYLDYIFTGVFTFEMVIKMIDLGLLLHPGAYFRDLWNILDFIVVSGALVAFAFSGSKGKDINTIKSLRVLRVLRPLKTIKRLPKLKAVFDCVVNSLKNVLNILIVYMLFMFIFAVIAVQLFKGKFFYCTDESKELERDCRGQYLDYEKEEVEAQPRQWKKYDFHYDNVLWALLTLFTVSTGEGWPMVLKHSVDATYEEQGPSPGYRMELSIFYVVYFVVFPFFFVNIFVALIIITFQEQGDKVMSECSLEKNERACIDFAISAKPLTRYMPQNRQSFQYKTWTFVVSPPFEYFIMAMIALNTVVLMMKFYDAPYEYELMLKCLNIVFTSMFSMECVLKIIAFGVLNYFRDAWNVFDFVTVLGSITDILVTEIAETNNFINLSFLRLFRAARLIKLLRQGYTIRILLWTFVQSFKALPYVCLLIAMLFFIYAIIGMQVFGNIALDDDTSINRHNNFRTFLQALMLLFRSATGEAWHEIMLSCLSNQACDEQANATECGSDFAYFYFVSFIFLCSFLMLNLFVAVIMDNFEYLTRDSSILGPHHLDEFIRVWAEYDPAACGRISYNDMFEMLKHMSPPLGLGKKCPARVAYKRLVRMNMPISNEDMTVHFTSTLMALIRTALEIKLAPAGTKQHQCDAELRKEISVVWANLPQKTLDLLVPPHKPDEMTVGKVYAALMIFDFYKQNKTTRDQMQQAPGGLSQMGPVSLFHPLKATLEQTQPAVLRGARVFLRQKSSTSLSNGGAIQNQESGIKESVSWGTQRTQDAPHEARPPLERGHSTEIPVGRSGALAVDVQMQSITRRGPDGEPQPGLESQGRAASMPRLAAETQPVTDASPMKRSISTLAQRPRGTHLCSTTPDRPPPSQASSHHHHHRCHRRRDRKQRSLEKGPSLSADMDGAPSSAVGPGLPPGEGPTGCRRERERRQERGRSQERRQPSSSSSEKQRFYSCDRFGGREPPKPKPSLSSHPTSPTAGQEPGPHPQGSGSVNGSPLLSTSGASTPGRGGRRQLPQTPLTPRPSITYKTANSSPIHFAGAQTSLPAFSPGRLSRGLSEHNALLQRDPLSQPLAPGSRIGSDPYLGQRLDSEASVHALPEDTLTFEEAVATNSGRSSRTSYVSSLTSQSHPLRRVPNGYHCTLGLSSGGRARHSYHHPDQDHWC
T1 sequence (P54284 whole entry partner): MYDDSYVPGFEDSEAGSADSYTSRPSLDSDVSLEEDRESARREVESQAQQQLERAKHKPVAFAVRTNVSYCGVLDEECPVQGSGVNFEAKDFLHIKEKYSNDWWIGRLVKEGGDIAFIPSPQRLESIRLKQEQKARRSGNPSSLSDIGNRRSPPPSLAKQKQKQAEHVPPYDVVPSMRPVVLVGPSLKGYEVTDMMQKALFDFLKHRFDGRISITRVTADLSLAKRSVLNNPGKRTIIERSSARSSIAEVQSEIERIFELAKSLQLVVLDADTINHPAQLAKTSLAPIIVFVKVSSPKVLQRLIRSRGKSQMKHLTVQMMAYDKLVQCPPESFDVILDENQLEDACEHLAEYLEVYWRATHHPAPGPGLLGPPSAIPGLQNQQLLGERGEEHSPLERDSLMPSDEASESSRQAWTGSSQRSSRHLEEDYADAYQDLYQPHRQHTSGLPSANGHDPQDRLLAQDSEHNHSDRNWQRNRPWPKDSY
T1 sequence (P54289 25-956 partner limits assumed): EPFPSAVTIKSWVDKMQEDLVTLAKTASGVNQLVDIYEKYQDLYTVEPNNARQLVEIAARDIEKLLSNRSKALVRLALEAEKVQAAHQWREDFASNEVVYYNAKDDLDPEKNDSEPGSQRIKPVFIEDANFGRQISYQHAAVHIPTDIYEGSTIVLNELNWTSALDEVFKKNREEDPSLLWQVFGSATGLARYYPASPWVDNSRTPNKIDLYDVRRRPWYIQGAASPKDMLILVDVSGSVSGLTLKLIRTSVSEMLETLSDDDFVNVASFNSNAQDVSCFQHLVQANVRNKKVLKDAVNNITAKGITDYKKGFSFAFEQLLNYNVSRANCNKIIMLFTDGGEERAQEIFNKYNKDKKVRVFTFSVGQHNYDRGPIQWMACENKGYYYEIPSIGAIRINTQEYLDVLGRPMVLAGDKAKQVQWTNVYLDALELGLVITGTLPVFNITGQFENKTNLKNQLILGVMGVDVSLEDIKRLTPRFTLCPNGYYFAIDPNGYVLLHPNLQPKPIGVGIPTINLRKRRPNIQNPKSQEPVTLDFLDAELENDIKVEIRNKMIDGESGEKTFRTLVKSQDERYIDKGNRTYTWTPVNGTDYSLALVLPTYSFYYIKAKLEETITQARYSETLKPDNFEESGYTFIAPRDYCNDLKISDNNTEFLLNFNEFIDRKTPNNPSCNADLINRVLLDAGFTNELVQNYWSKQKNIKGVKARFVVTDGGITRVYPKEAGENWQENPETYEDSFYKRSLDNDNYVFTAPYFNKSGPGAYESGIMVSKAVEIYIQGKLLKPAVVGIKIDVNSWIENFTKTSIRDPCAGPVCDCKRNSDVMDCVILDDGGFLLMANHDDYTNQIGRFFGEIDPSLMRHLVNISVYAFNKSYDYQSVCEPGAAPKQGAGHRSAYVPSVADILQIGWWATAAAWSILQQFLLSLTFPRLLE
T1 sequence (P54289 957-1103 partner limits assumed): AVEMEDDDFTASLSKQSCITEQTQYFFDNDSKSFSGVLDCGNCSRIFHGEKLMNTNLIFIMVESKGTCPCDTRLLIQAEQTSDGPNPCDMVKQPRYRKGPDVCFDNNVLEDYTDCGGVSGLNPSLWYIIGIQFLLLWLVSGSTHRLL

Row | IC50 (human Cav2.2) | Compound | % MPE [1]
1 | 1.66 µM | O=C(c1cccc(C(F)(F)F)c1)N1CCCN2C[C@H](Oc3cnc(C4CC4)cn3)C[C@H]2C1 [Example 7, [(8R,9aS)-8-[(5-cyclopropylpyrazin-2-yl)oxy]hexahydro-1H-pyrrolo[1,2-a][1,4]diazepin-2(3H)-yl][3-(trifluoromethyl)phenyl]methanone] | 44%
2 | 0.88 µM | O=C(c1ccc(C(F)(F)F)cc1)N1CCCN2C[C@H](Oc3cnc(C4CC4)cn3)C[C@H]2C1 [Example 13, [(8R,9aS)-8-[(5-cyclopropylpyrazin-2-yl)oxy]hexahydro-1H-pyrrolo[1,2-a][1,4]diazepin-2(3H)-yl][4-(trifluoromethyl)phenyl]methanone] | 40%
3 | 1.21 µM | FC(F)(F)c1ccc(N2CCCN3C[C@H](Oc4cnc(C5CC5)cn4)C[C@H]3C2)nc1 [Example 19, (8R,9aS)-8-[(5-cyclopropylpyrazin-2-yl)oxy]-2-[5-(trifluoromethyl)pyridin-2-yl]octahydro-1H-pyrrolo[1,2-a][1,4]diazepane] | 36%
4 | 1.72 µM | O=C(c1cccc(C(F)(F)F)c1)N1CCC(=O)N2C[C@H](Oc3cnc(C4CC4)cn3)C[C@H]2C1 [Example 32, (8R,9aS)-8-[(5-cyclopropylpyrazin-2-yl)oxy]-2-[3-(trifluoromethyl)benzoyl]octahydro-5H-pyrrolo[1,2-a][1,4]diazepin-5-one] | 46%
5 | 0.92 µM | O=C1CCN(Cc2cccc(C(F)(F)F)c2)C[C@@H]2C[C@@H](Oc3cnc(C4CC4)cn3)CN12 [Example 42, (8R,9aS)-8-[(5-cyclopropylpyrazin-2-yl)oxy]-2-[3-(trifluoromethyl)benzyl]octahydro-5H-pyrrolo[1,2-a][1,4]diazepin-5-one] | 27%
6 | 1.65 µM | O=C1CCN(Cc2ccc(OC(F)(F)F)cc2)C[C@@H]2C[C@@H](Oc3cnc(C4CC4)cn3)CN12 [Example 44, (8R,9aS)-8-[(5-cyclopropylpyrazin-2-yl)oxy]-2-[4-(trifluoromethoxy)benzyl]octahydro-5H-pyrrolo[1,2-a][1,4]diazepin-5-one] | 48%
7 | 2.52 µM | O=C1CCN(c2ccc(C(F)(F)F)cn2)C[C@@H]2C[C@@H](Oc3cnc(C4CC4)cn3)CN12 [Example 47, (8R,9aS)-8-[(5-cyclopropylpyrazin-2-yl)oxy]-2-[5-(trifluoromethyl)pyridin-2-yl]octahydro-5H-pyrrolo[1,2-a][1,4]diazepin-5-one] | 73%
8 | 18.8 µM | O=C(c1cccc(C(F)(F)F)c1)N1CCC(=O)N2C[C@@H](Oc3cnc(C4CC4)cn3)C[C@H]2C1 [Example 60, (8S,9aS)-8-[(5-cyclopropylpyrazin-2-yl)oxy]-2-[3-(trifluoromethyl)benzoyl]octahydro-5H-pyrrolo[1,2-a][1,4]diazepin-5-one] | 
9 | 1.2 µM | O=C1CCN(S(=O)(=O)c2ccc(C(F)(F)F)cc2)C[C@@H]2C[C@H](Oc3cnc(C4CC4)cn3)CN12 [Example 61, (8S,9aS)-8-[(5-cyclopropylpyrazin-2-yl)oxy]-2-{[4-(trifluoromethyl)phenyl]sulfonyl}octahydro-5H-pyrrolo[1,2-a][1,4]diazepin-5-one] | 
10 | 3.23 µM | O=C1CCN(Cc2ccc(OC(F)(F)F)cc2)C[C@H]2C[C@H](Oc3cnc(C4CC4)cn3)CN12 [Example 62, (8S,9aR)-8-[(5-cyclopropylpyrazin-2-yl)oxy]-2-[4-(trifluoromethoxy)benzyl]octahydro-5H-pyrrolo[1,2-a][1,4]diazepin-5-one] | 
11 | 22.5 µM | O=C(c1cccc(C(F)(F)F)c1)N1CCC(=O)N2C[C@@H](Oc3cnc(C4CC4)cn3)C[C@@H]2C1 [Example 63, (8S,9aR)-8-[(5-cyclopropylpyrazin-2-yl)oxy]-2-[3-(trifluoromethyl)benzoyl]octahydro-5H-pyrrolo[1,2-a][1,4]diazepin-5-one] | 
12 | 2.2 µM | O=C1CCN(S(=O)(=O)c2ccc(C(F)(F)F)cc2)C[C@H]2C[C@H](Oc3cnc(C4CC4)cn3)CN12 [Example 64, (8S,9aR)-8-[(5-cyclopropylpyrazin-2-yl)oxy]-2-{[4-(trifluoromethyl)phenyl]sulfonyl}octahydro-5H-pyrrolo[1,2-a][1,4]diazepin-5-one] | 

Row | Compound | IC50 (human Cav2.2) | % MPE [1]
13 | (8R,9aS)-8-[(5-cyclopropylpyrazin-2-yl)oxy]-2-{[3-(trifluoromethyl)phenyl]sulfonyl}octahydro-1H-pyrrolo[1,2-a][1,4]diazepane [Example 1] | 0.32 µM | 
